The data set has as its target T1, Amine oxidase [flavin-containing] B (Homo sapiens, UniProt P27338).
T1 sequence (P27338 whole entry): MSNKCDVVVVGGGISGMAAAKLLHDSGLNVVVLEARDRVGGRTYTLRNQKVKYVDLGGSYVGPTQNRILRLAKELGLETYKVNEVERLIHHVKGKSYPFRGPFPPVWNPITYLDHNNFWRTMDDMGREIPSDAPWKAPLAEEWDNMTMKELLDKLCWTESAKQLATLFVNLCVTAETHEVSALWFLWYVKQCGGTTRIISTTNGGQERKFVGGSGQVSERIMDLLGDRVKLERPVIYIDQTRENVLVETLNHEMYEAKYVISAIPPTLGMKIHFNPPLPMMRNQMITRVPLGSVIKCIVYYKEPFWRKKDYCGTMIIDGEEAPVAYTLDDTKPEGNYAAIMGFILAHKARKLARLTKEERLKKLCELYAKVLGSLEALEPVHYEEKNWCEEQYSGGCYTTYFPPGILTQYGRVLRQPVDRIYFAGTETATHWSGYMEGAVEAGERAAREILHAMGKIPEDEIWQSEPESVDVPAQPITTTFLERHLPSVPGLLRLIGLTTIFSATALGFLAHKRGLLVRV
The experiment in a line: Activity of 50 nM human recombinant MAOB after 30 mins. The note with it: 0.5 h.

In the case of `CN1CC[C@@]2(c3ccccc3)C[C@H]2C1`, the Vmax is on record as 135 nmol. `CN1CC[C@]2(c3ccccc3)C[C@@H]2C1`: the Vmax worked out at 135 nmol.
